# In publication PMC9611370 (Viruses, 2022):
# Like-named read-outs stand apart in the source and are kept apart here.
# Experiments:
# [1] = system: PHA-stimulated human PBMCs; test: Cytotoxicity assay (MTT) in uninfected PBMCs; format: cell-based
# HIV-1NL4-3 = test: In vitro antiviral assay (p24 ELISA) in PHA-stimulated human PBMCs; conditions: for IC50: read-out: NL4-3 Antiviral (PBMC) IC50; for IC90: read-out: NL4-3 Antiviral (PBMC) IC90
# [2] = Human immunodeficiency virus 1, NL43, PBMC, in Homo sapiens, 168 h
# [3] = PHA-stimulated human PBMCs, 7 days, p24 ELISA
SMILES,"cytotoxicity better than NBD-14189 ([1]; PBMC, compared with NBD-14189)",IC50 (HIV-1NL4-3; [2]) [nM],IC90 (HIV-1NL4-3; [2]) [nM],"CC50 ([1]; uninfected PBMCs, MTT, day 7, read-out: PBMC Toxicity CC50) [nM]","CC90 ([1]; uninfected PBMCs, MTT, day 7, read-out: PBMC Toxicity CC90) [nM]",SI CC50/IC50 (HIV-1NL4-3; PBMC CC50 / NL4-3 IC50),IC50 (HIV-1NL4-3; [3]) [nM],IC90 (HIV-1NL4-3; [3]) [nM]
COc1cnc(-n2cnc(C)n2)c2[nH]cc(C(=O)C(=O)N3CCN(C(=O)c4ccccc4)CC3)c12 [BMS-626529],about 3 fold,280,> 10000,,,,,
C#C[C@]1(CO)O[C@@H](n2cnc3c(N)nc(F)nc32)C[C@@H]1O [EFdA],,,,23000,> 100000,"13,000",1.7,> 66
